# Measurements published in article PMC6389962 (Nature Communications, 2019).
# Assays:
# in vitro = conditions: isolated enzyme neprilysin, pH 8, % remaining analogue
# Experimental: (§1) Stock solutions of the oligomers were prepared at a concentration of 400 µM in a solution of 50 mM HEPES buffer, 50 mM NaCl, 0.05% Tween-80, pH 8.0. Stock solution of NEP 24.11 was prepared at a concentration of 100 µg mL^−1 in water. Stability of oligomers to NEP 24.11 was assessed by conducting protease reaction in a 96-well plates at 20 °C. […] Each compound was also incubated in the absence of the enzyme (12 µL of HEPES buffer and 38 µL of oligomer). […] A portion of the quenched reaction solution was analysed by HPLC. The time course of peptide degradation was determined by integrating the area of each peak in a series of HPLC traces.
# NEP 24.11 = NEP 24.11 (Homo sapiens, UniProt P08473); test: in vitro; conditions: pH 8
# NEP 24.11, sequence (P08473 whole entry): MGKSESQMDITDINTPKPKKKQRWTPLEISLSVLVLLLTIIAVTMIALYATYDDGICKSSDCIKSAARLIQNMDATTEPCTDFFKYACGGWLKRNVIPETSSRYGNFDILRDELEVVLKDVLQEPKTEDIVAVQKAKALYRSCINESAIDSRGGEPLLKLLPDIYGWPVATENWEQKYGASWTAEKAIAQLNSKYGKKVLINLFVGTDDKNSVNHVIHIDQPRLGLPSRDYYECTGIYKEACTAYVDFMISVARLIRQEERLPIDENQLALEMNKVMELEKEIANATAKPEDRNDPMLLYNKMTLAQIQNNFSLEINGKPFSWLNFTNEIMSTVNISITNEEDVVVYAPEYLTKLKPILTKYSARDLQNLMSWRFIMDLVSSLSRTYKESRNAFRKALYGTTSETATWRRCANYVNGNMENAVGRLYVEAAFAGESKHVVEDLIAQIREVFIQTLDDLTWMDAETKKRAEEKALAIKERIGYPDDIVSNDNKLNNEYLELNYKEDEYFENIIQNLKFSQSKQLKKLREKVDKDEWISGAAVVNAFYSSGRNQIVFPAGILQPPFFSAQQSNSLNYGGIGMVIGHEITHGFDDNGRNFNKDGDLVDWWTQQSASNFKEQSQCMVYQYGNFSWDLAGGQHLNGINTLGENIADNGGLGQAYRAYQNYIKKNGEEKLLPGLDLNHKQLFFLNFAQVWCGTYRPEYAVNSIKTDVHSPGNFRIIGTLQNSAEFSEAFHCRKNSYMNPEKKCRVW
# Experimental: as §1
# [1] = system: fasted normal mice (C57BL/6J); test: Intraperitoneal glucose tolerance test (IPGTT) in fasted normal mice; format: in vivo, mouse; conditions: for AUC: IPGTT 5 min (Fig 4a), blood glucose AUC 0-120 min
# Experimental: In a second study, an IPGTT was performed 30 min after i.v. injections of 1, 14 and the vehicle (Fig. 4b). […] A further IPGTT study was done with a glucose challenge after 2 h of the dosing to investigate the prolonged activity of hybrids 14, 22 and 23 (Fig. 4c).
# Fig. 4 IPGTT studies in mice. a–d Intraperitoneal glucose tolerance test (IPGTT) at different time after dosing in fasted normal mice (C57BL/6J, male, 20–25 g). Dosage: 200 μg kg^−1 (50 nmol kg^−1) i.v. Formulation: 20 μg mL^−1 in PBS 1×. IPGTT: glucose 2 g kg^−1 i.p. at T0. a IPGTT after 5 min (n = 4). b IPGTT after 30 min (n = 6). c IPGTT after 2 h (n = 6). d IPGTT after 4 h (n = 3). Area under the curve (AUC) of the corresponding IPGTT curve. Data are mean ± SEM. […] Source data are provided as a Source Data file
# After the acclimation period (at least 5 days), mice (male C57BL/6J mice (Charles River laboratories) 6 weeks old, 20–25 g) were randomized into groups according to their body weight. The mice were fasted for 6 h prior being acutely treated via i.v. route (5 µg per mouse i.v. (200 μg kg^−1, 50 nmol kg^−1)) formulated at 20 µg mL^−1 in PBS 1×. The IPGTTs were performed (glucose 2 g kg^−1 i.p.) 5 min, 30 min, 2 h or 4 h after dosing and blood glucose was measured at different time points after the glucose challenge.
# [2] = fasted C57BL/6J mice, 200 μg kg−1 (50 nmol kg−1) i.v., glucose 2 g kg−1 i.p., n = 6
structure (smiles),measurement,setting,value
"CC[C@H](C)[C@H](NC(=O)[C@H](Cc1ccccc1)NC(=O)[C@H](CCC(=O)O)NC(=O)[C@H](CCCCN)NC(=O)[C@H](C)NC(=O)[C@H](C)NC(=O)[C@H](CCC(N)=O)NC(=O)CNC(=O)[C@H](CCC(=O)O)NC(=O)[C@H](CC(C)C)NC(=O)[C@H](Cc1ccc(O)cc1)NC(=O)[C@H](CO)NC(=O)[C@H](CO)NC(=O)[C@@H](NC(=O)[C@H](CC(=O)O)NC(=O)[C@H](CO)NC(=O)[C@@H](NC(=O)[C@H](Cc1ccccc1)NC(=O)[C@@H](NC(=O)CNC(=O)[C@H](CCC(=O)O)NC(=O)CNC(=O)[C@@H](N)Cc1c[nH]cn1)[C@@H](C)O)[C@@H](C)O)C(C)C)C(=O)N[C@@H](C)C(=O)N[C@@H](Cc1c[nH]c2ccccc12)C(=O)N[C@@H](CC(C)C)C(=O)N[C@H](C(=O)N[C@@H](CCCCN)C(=O)NCC(=O)N[C@@H](CCCNC(=N)N)C(=O)NCC(N)=O)C(C)C [compound 1, GLP-1-G^2 (GG2)]",remaining at 1 h,in vitro,77.5%
same,remaining at 2 h,in vitro,63.1%
same,remaining at 4 h,in vitro,47.1%
same,remaining at 6 h,in vitro,32.6%
same,% remaining analogue,"NEP 24.11; isolated enzyme neprilysin, 22 h",0.6%
same,NEP 24.11 t1/2,NEP 24.11,3.6 h
same,AUC,"[1]; mean of n = 4, 2018-03-08",21223 mg·min/dL
same,AUC,"[1]; single animal, 1st of group",20535 mg·min/dL
same,AUC,"[1]; single animal, 2nd of group",25208 mg·min/dL
same,AUC,"[1]; single animal, 3rd of group",19110 mg·min/dL
same,AUC,"[1]; single animal, 4th of group",20040 mg·min/dL
same,activity in IPGTT 5 min after dosing,"[1]; fasted C57BL/6J mice, 200 μg kg−1 (50 nmol kg−1) i.v., glucose 2 g kg−1 i.p., n = 4",both analogues were active
same,activity in IPGTT 30 min after dosing,[1]; [2],already inactive
same,activity in IPGTT 2 h after dosing,[1]; [2],IPGTT curve similar to the vehicle
